Measured values: patent US10150742B2, “Substituted heterocyclic compounds for treating or preventing viral infections” (President and Fellows of Harvard College, priority 2013, dated 2018)

Legend:
[1] = test system: dengue virus serotype 2, DENV2; test: Reduction of DENV viral titer by kinase inhibitors and labelled GNF2 derivatives (cell-based); conditions: for EC90: Dengue virus, DENV2, read-out: EC90 (dengue virus serotype 2, DENV2)
Procedure: In order to investigate the role of kinases on DENV entry, the order of addition of the cells, virus, and inhibitor was investigated. An inhibitor was either (i) contacted with a virus for 1 h at 37° C.; (ii) contacted with cells for 1 h at 37° C.; or (iii) contacted with a virus and cells for 1 h at 37° C. The cells were washed to remove virus and inhibitor. The washed cells were exposed to either DMSO or an inhibitor. Viral titer was measured at intervals post-infection by harvesting supernatants and measuring virus production by a plaque formation assay (PFA).

DENV2 [2] = test: Order-of-addition / post-infection treatment, single-cycle DENV2 yield in BHK21 cells by plaque-formation assay; assay type: cell-based; conditions: for inhibition of DENV2 replication when added after infection: post-treatment of cells
Procedure: To examine the point(s) in the DENV infectious cycle affected by GNF-2, we performed order of addition experiments measuring the effect of GNF-2 when incubated with cells or virus prior to infection (PRE), when added at the time of infection (CO), or when added after the initial infection had been allowed to occur (POST). […] BHK21 cells were inoculated with DENV2 at a multiplicity of infection (MOI) of 1 and incubated for one-hour at 37° C. after which the inoculum was removed, the cells were washed, and fresh medium was added to limit infection to a single round. At twenty-four hours post-infection, corresponding to approximately one complete life cycle of DENV, the yield of infectious virions that had been released to the culture supernatant was quantified by plaque-formation assay (PFA) as a measure of successful DENV replication.

Abl kinases = test: Abl kinase inhibition (IC50 kinase); assay type: biochemical
DENV = test: Association of DENV with liposomes; assay type: biochemical
DENV2 [3] = test: DENV2 infectivity assay, compound pre-incubated with virus inoculum, viral yield by plaque formation assay; conditions: treatment of the virus

| SMILES | reduction of DENV viral titer [1] | EC90 [1] [µM] | inhibition of DENV2 replication when added after infection (DENV2 [2]) | IC50 (Abl kinases) [µM] | IC90 (concentration causing a 10-fold decrease in single-cycle viral yield) (DENV2 [2]; added to cells post-infection, BHK21, MOI 1, 24 h) [μM] | association of DENV with liposomes (DENV) | lowering of DV titer when pre-incubated with the virus, compared to DMSO control (DENV2 [3]) [log] |
| --- | --- | --- | --- | --- | --- | --- | --- |
| Cc1ccc(NC(=O)c2ccc(CN3CCN(C)CC3)cc2)cc1Nc1nccc(-c2cccnc2)n1 [imatinib] | did not | 10 | inhibited DENV2 replication | – | – | – | – |
| NC(=O)c1cccc(-c2cc(Nc3ccc(OC(F)(F)F)cc3)ncn2)c1 [GNF-2] | over 1 log unit | ~1 | inhibited DENV2 replication | 0.138 ± 0.005 | 8 | does not block association | ~1 |
